Test results from ChEMBL document CHEMBL3808305, “Discovery of fused tricyclic core containing HCV NS5A inhibitors with pan-genotype activity” (Bioorg Med Chem Lett, 2016).

Experiments:
[1] = Clearance in Sprague-Dawley rat at 5 mg/kg, po or 2 mg/kg, iv; assay type: ADME, organism-based; settings: in vivo
Hepatitis C virus [2] = test: Antiviral activity against HCV genotype 1a assessed as decrease in HCV replicon RNA replication after 3 days by taqman assay based cell based replicon method; assay type: functional, organism-based, Hepacivirus hominis; settings: subtype 1a, 72 h
Hepatitis C virus [3] = test: Antiviral activity against HCV genotype 1a expressing NS5A Y93H mutant assessed as decrease in HCV replicon RNA replication after 3 days by taqman assay based cell based replicon method; assay type: functional, organism-based, Hepacivirus hominis; settings: subtype 1a, 72 h
[4] = AUC in Sprague-Dawley rat at 5 mg/kg, po; assay type: ADME, organism-based; settings: in vivo
Hepatitis C virus [5] = test: Antiviral activity against HCV genotype 2a assessed as decrease in HCV replicon RNA replication after 3 days by taqman assay based cell based replicon method; assay type: functional, organism-based, Hepacivirus hominis; settings: 72 h
Hepatitis C virus [6] = test: Antiviral activity against HCV genotype 1b assessed as decrease in HCV replicon RNA replication after 3 days by taqman assay based cell based replicon method; assay type: functional, organism-based, Hepacivirus hominis; settings: 72 h
[7] = Half life in Sprague-Dawley rat at 5 mg/kg, po or 2 mg/kg, iv; assay type: ADME, organism-based; settings: in vivo
[8] = Oral bioavailability in Sprague-Dawley rat at 5 mg/kg; assay type: ADME, organism-based; settings: in vivo
Hepatitis C virus [9] = test: Antiviral activity against HCV genotype 3a assessed as decrease in HCV replicon RNA replication after 3 days by taqman assay based cell based replicon method; assay type: functional, organism-based, Hepacivirus hominis; settings: 72 h
[10] = Half life in Sprague-Dawley rat at 10 mg/kg, po or 2 mg/kg, iv; assay type: ADME, organism-based; settings: in vivo
[11] = AUC in Sprague-Dawley rat at 10 mg/kg, po; assay type: ADME, organism-based; settings: in vivo
[12] = Clearance in Sprague-Dawley rat at 10 mg/kg, po or 2 mg/kg, iv; assay type: ADME, organism-based; settings: in vivo
[13] = Oral bioavailability in Sprague-Dawley rat at 10 mg/kg; assay type: ADME, organism-based; settings: in vivo
Hepatitis C virus [14] = test: Antiviral activity against HCV genotype 1b assessed as decrease in HCV replicon RNA replication after 3 days in presence of 10% FBS by taqman assay based cell based replicon method; assay type: functional, organism-based, Hepacivirus hominis; settings: 72 h
Hepatitis C virus [15] = test: Antiviral activity against HCV genotype 2a assessed as decrease in HCV replicon RNA replication after 3 days in presence of 10% FBS by taqman assay based cell based replicon method; assay type: functional, organism-based, Hepacivirus hominis; settings: 72 h
Hepatitis C virus [16] = test: Antiviral activity against HCV genotype 1a assessed as decrease in HCV replicon RNA replication after 3 days in presence of 10% FBS by taqman assay based cell based replicon method; assay type: functional, organism-based, Hepacivirus hominis; settings: subtype 1a, 72 h
Hepatitis C virus [17] = test: Antiviral activity against HCV genotype 3a assessed as decrease in HCV replicon RNA replication after 3 days in presence of 10% FBS by taqman assay based cell based replicon method; assay type: functional, organism-based, Hepacivirus hominis; settings: 72 h
Hepatitis C virus [18] = test: Antiviral activity against HCV genotype 1a expressing NS5A Y93H mutant assessed as decrease in HCV replicon RNA replication after 3 days in presence of 10% FBS by taqman assay based cell based replicon method; assay type: functional, organism-based, Hepacivirus hominis; settings: subtype 1a, 72 h
Hepatitis C virus [19] = test: Antiviral activity against HCV genotype 1a H77 infected in mouse HB1 cells assessed as decrease in HCV replicon RNA replication after 3 days by taqman assay; assay type: functional, organism-based, Hepacivirus hominis; settings: genotype 1a H77, HB1, 72 h
Hepatitis C virus [20] = test: Antiviral activity against HCV genotype 2a JFH assessed as decrease in HCV replicon RNA replication by taqman assay based cell based replicon method; assay type: functional, organism-based, Hepacivirus hominis; settings: subtype 2a JFH
Hepatitis C virus [21] = test: Antiviral activity against HCV genotype 1a H77 expressing NS5A Y93H mutant infected in mouse HB1 cells assessed as decrease in HCV replicon RNA replication by taqman assay; assay type: functional, organism-based, Hepacivirus hominis; settings: genotype 1a H77, HB1
Hepatitis C virus [22] = test: Antiviral activity against HCV genotype 1b Con1 assessed as decrease in HCV replicon RNA replication by taqman assay based cell based replicon method; assay type: functional, organism-based, Hepacivirus hominis; settings: isolate Con1
Hepatitis C virus [23] = test: Antiviral activity against HCV genotype 3a NC009824 assessed as decrease in HCV replicon RNA replication by taqman assay based cell based replicon method; assay type: functional, organism-based, Hepacivirus hominis

SMILES	EC50 (Hepatitis C virus [2]) [nM]	EC50 (Hepatitis C virus [3]) [nM]	EC50 (Hepatitis C virus [5]) [nM]	EC50 (Hepatitis C virus [6]) [nM]	EC50 (Hepatitis C virus [9]) [nM]	other results
COC(=O)N[C@H](C(=O)N1CCC[C@H]1c1ncc(-c2ccc3c(c2)Oc2ccc(-c4cnc([C@@H]5CCCN5C(=O)[C@@H](NC(=O)OC)C(C)C)[nH]4)cc2O3)[nH]1)C(C)C	0.01	16	0.01	0.009		clearance [1]: 0.384 L/h/kg; AUC [4]: 4500 nM·h; half-life [7]: 1.4 h; bioavailability [8]: 26%
COC(=O)N[C@H](C(=O)N1CCC[C@H]1c1ncc(-c2ccc3c(=O)c4cc(-c5cnc([C@@H]6CCCN6C(=O)[C@@H](NC(=O)OC)C(C)C)[nH]5)ccc4oc3c2)[nH]1)C(C)C	0.01	1730	0.1	0.002		
COC(=O)N[C@H](C(=O)N1CCC[C@H]1c1ncc(-c2ccc3c(c2)Oc2ccc(-c4cnc([C@@H]5CCCN5C(=O)[C@@H](NC(=O)OC)C(C)C)[nH]4)cc2C3(C)C)[nH]1)C(C)C	0.02	130	< 0.02	0.005	0.3	half-life [10]: 1.6 h; AUC [11]: 2300 nM·h; clearance [12]: 1.14 L/h/kg; bioavailability [13]: 39%
COC(=O)N[C@H](C(=O)N1CCC[C@H]1c1ncc(-c2ccc3nc4cc(-c5cnc([C@@H]6CCCN6C(=O)[C@@H](NC(=O)OC)C(C)C)[nH]5)ccc4nc3c2)[nH]1)C(C)C	0.06	61	0.1	0.06	0.2	
COC(=O)N[C@H](C(=O)N1CCC[C@H]1c1ncc(-c2ccc3c(c2)NC(=O)c2cc(-c4cnc([C@@H]5CCCN5C(=O)[C@@H](NC(=O)OC)C(C)C)[nH]4)ccc2O3)[nH]1)C(C)C						EC50 (Hepatitis C virus [14]): 40 nM; EC50 (Hepatitis C virus [15]): > 1000 nM; EC50 (Hepatitis C virus [16]): 950 nM
COC(=O)N[C@H](C(=O)N1CCC[C@H]1c1ncc(-c2ccc3c(Cl)c4cc(-c5cnc([C@@H]6CCCN6C(=O)[C@@H](NC(=O)OC)C(C)C)[nH]5)ccc4cc3c2)[nH]1)C(C)C	0.05	66	0.01	0.003	0.6	
COC(=O)N[C@H](C(=O)N1CCC[C@H]1c1ncc(-c2ccc3c(c2)C(=O)c2ccc(-c4cnc([C@@H]5CCCN5C(=O)[C@@H](NC(=O)OC)C(C)C)[nH]4)cc2C3=O)[nH]1)C(C)C	0.09	35	0.7	0.007		
CCC1c2ccc(-c3cnc([C@@H]4CCCN4C(=O)[C@@H](NC(=O)OC)C(C)C)[nH]3)cc2Oc2ccc(-c3cnc([C@@H]4CCCN4C(=O)[C@@H](NC(=O)OC)C(C)C)[nH]3)cc21 (stereo partly drawn)	0.02	24	0.005	0.004	0.07	
COC(=O)N[C@H](C(=O)N1CCC[C@H]1c1ncc(-c2ccc3c(C)c4cc(-c5cnc([C@@H]6CCCN6C(=O)[C@@H](NC(=O)OC)C(C)C)[nH]5)ccc4cc3c2)[nH]1)C(C)C	0.02	42	0.005	0.005	0.5	
COC(=O)N[C@H](C(=O)N1CCC[C@H]1c1ncc(-c2ccc3c(c2)Oc2ccc(-c4cnc([C@@H]5CCCN5C(=O)[C@@H](NC(=O)OC)C(C)C)[nH]4)cc2S3)[nH]1)C(C)C	0.04	21	0.06	0.002	0.3	clearance [1]: 0.9 L/h/kg; AUC [4]: 1100 nM·h; half-life [7]: 1.3 h; bioavailability [8]: 25%
COC(=O)N[C@H](C(=O)N1CCC[C@H]1c1ncc(-c2ccc3c(c2)Oc2ccc(-c4cnc([C@@H]5CCCN5C(=O)[C@@H](NC(=O)OC)C(C)C)[nH]4)cc2S3(=O)=O)[nH]1)C(C)C	> 1	2380	0.8	0.06	16	
COC(=O)N[C@H](C(=O)N1CCC[C@H]1c1ncc(-c2ccc3cc4cc(-c5cnc([C@@H]6CCCN6C(=O)[C@@H](NC(=O)OC)C(C)C)[nH]5)ccc4cc3c2)[nH]1)C(C)C	0.006	87	0.005	0.001	0.06	half-life [10]: 3 h; AUC [11]: 13000 nM·h; clearance [12]: 0.462 L/h/kg; bioavailability [13]: 46%
COC(=O)N[C@H](C(=O)N1CCC[C@H]1c1ncc(-c2ccc3c(c2)C=Nc2cc(-c4cnc([C@@H]5CCCN5C(=O)[C@@H](NC(=O)OC)C(C)C)[nH]4)ccc2O3)[nH]1)C(C)C						EC50 (Hepatitis C virus [14]): 0.5 nM; EC50 (Hepatitis C virus [15]): 55 nM; EC50 (Hepatitis C virus [16]): 40 nM
COC(=O)N[C@H](C(=O)N1CCC[C@H]1c1ncc(-c2ccc3c(c2)NC(=O)c2ccc(-c4cnc([C@@H]5CCCN5C(=O)[C@@H](NC(=O)OC)C(C)C)[nH]4)cc2O3)[nH]1)C(C)C						EC50 (Hepatitis C virus [14]): 0.2 nM; EC50 (Hepatitis C virus [15]): 310 nM; EC50 (Hepatitis C virus [16]): 145 nM
COC(=O)N[C@H](C(=O)N1CCC[C@H]1c1ncc(-c2ccc3c(c2)C=Nc2ccc(-c4cnc([C@@H]5CCCN5C(=O)[C@@H](NC(=O)OC)C(C)C)[nH]4)cc2O3)[nH]1)C(C)C						EC50 (Hepatitis C virus [14]): 0.06 nM; EC50 (Hepatitis C virus [15]): 55 nM; EC50 (Hepatitis C virus [16]): 220 nM
CCCC/C=C1/c2ccc(-c3cnc([C@@H]4CCCN4C(=O)[C@@H](NC(=O)OC)C(C)C)[nH]3)cc2Oc2ccc(-c3cnc([C@@H]4CCCN4C(=O)[C@@H](NC(=O)OC)C(C)C)[nH]3)cc21	> 0.1	260	0.05	0.006	0.4	
COC(=O)N[C@H](C(=O)N1CCC[C@H]1c1ncc(-c2ccc3c(c2)Oc2ccc(-c4cnc([C@@H]5CCCN5C(=O)[C@@H](NC(=O)OC)C(C)C)[nH]4)cc2C3C)[nH]1)C(C)C (stereo partly drawn)	0.05		0.004	0.009	0.08	
COC(=O)N[C@H](C(=O)N1CCC[C@H]1c1ncc(-c2ccc3nc4cc(-c5cnc([C@@H]6CCCN6C(=O)[C@@H](NC(=O)OC)C(C)C)[nH]5)ccc4cc3c2)[nH]1)C(C)C	0.05	1050	0.04	0.01		
COC(=O)N[C@H](C(=O)N1CCC[C@H]1c1ncc(-c2ccc3c(c2)Oc2ccc(-c4cnc([C@@H]5CCCN5C(=O)[C@@H](NC(=O)OC)C(C)C)[nH]4)cc2C3C2CC2)[nH]1)C(C)C (stereo partly drawn)						EC50 (Hepatitis C virus [17]): 0.2 nM; EC50 (Hepatitis C virus [18]): 46 nM; EC50 (Hepatitis C virus [14]): 0.004 nM; EC50 (Hepatitis C virus [15]): 0.004 nM; EC50 (Hepatitis C virus [16]): 0.03 nM
COC(=O)N[C@H](C(=O)N1CCC[C@H]1c1ncc(-c2ccc3c(C#N)c4cc(-c5cnc([C@@H]6CCCN6C(=O)[C@@H](NC(=O)OC)C(C)C)[nH]5)ccc4nc3c2)[nH]1)C(C)C						EC50 (Hepatitis C virus [14]): 0.01 nM; EC50 (Hepatitis C virus [15]): 1 nM; EC50 (Hepatitis C virus [16]): 0.3 nM
COC(=O)N[C@H](C(=O)N1CCC[C@H]1c1ncc(-c2ccc3c(c2)Oc2ccc(-c4cnc([C@@H]5CCCN5C(=O)[C@@H](NC(=O)OC)C(C)C)[nH]4)cc2N3c2ccccc2)[nH]1)C(C)C						EC50 (Hepatitis C virus [14]): 0.008 nM; EC50 (Hepatitis C virus [15]): 3 nM; EC50 (Hepatitis C virus [16]): 5 nM
COC(=O)N[C@H](C(=O)N1CCC[C@H]1c1ncc(-c2ccc3c(c2)Oc2ccc(-c4cnc([C@@H]5CCCN5C(=O)[C@@H](NC(=O)OC)C(C)C)[nH]4)cc2N3C)[nH]1)C(C)C	0.09	70	0.07	0.007	0.3	half-life [10]: 1.2 h; AUC [11]: 2800 nM·h; clearance [12]: 1.92 L/h/kg; bioavailability [13]: 69%
C/C=C1/c2ccc(-c3cnc([C@@H]4CCCN4C(=O)[C@@H](NC(=O)OC)C(C)C)[nH]3)cc2Oc2ccc(-c3cnc([C@@H]4CCCN4C(=O)[C@@H](NC(=O)OC)C(C)C)[nH]3)cc21	0.06	9	0.03	0.007	0.4	
COC(=O)N[C@H](C(=O)N1CCC[C@H]1c1nc(-c2ccc3c(c2)O[C@@H](c2ccccc2)n2c-3cc3cc(-c4c[nH]c([C@@H]5CCCN5C(=O)[C@@H](NC(=O)OC)C(C)C)n4)ccc32)c[nH]1)C(C)C [ELBASVIR]						EC50 (Hepatitis C virus [19]): 0.004 nM; EC50 (Hepatitis C virus [20]): 0.003 nM; EC50 (Hepatitis C virus [21]): 2 nM; EC50 (Hepatitis C virus [22]): 0.003 nM; EC50 (Hepatitis C virus [23]): 0.02 nM
